# Patent publication US12005049B2, “Methods of preventing cancer metastasis” (MediciNova, Inc., priority 2021, dated 2024)
# Assays:
# [1] = Sanftner et al Xenobiotica 2009; cited from earlier work
# MIF = test: Plasma level of MIF; conditions: found by the inventors; no method given
# Omm1.3 cells [2] = test: Wound healing (scratch) assay, Omm1.3; assay type: cell-based; conditions: exposed to HCM+UM-exo, 25 μM ibudilast, 48 hours
# Experimental: FIG. 1C depicts Omm1.3 cells in scratch assays, in which after the scratch, the cells were incubated with control HCM or with HCM of hepatocytes exposed to UM-exosomes with or without 25 μM ibudilast. Pictures were taken at zero time-point or after 48 hours under a microscope at 10× magnification. Wound healing assay. Omm1.3 and MP41 cells were scratched with a sterile 200 μL pipette tip. Cells were washed in PBS and replaced with fresh RPMI 1640 complete media, or hepatocyte conditioned media (HCM) pretreated with UM-exo. Images of the wounded area were recorded using an inverted phase-contrast microscope at the indicated time points.
# Omm1.3 cells [3] = test: Transwell migration assay; assay type: cell-based; conditions: HCM+UM-exo as chemoattractant, 24 hrs, 25 μM ibudilast, 10 μM diacerein, 1.0 μM reparixin, 0.25 μM crizotinib
# Experimental: FIG. 1A depicts trans-well migration assay results in which Omm1.3 cells were stimulated with hepatocyte conditioned media and uveal melanoma exosomes (HCM+UM-exo) in the presence of vehicle (DMSO), 10 μM diacerein, 1.0 μM reparixin, 0.25 μM crizotinib or 25 μM ibudilast.
# FIG. 1B depicts migrated cell count under the microscope from the trans-well migration assay, three fields for each condition. Experiments were repeated three times ±sd, p<0.001.
# Exosome isolation. Exosomes were isolated from UM cell lines kept in serum-free media for 24 hrs. The media was collected and subjected to serial centrifugation steps starting with a spin at 3,000×g to remove dead cells and cell debris. The supernatant from this step is spun at 20,000×g to pellet microvesicles and large EVs. Lastly, the supernatant from this step is centrifuged at 100,000×g to pellet the exosome fraction.
# Transwell migration assay. The in vitro migration assays were performed with 5×104 Omm1.3 cells seeded in 500 μL serum-free medium on BioCoat Matrigel Invasion Chambers (BD Biosciences). The conditioned media of the hepatocytes treated or untreated with UM-exosome was used as chemoattractant in the lower chamber. The cells were also treated with vehicle (DMSO), 0.25 μM crizotinib or 25 μM ibudilast for 24 hrs. […] Images of stained cells were taken through a microscope and quantified by counting cells in triplicate samples.
# GFP-Luc-Omm1.3 cells = test: Metastatic uveal melanoma (UM) mouse model; assay type: in vivo; conditions: UM-exosome-educated mice, 7.5 mg/kg ibudilast i.p. daily
# Experimental: FIG. 2A depicts quantification of bioluminescence intensity for each mouse in the abdominal region, while excluding bioluminescence in the eyes, in an evaluation of ibudilast in a metastatic UM mouse model. […] FIG. 2B depicts representative images of H&E-stained mouse liver sections from the metastatic UM mouse model. Mice were injected intravenously with vehicle (PBS) or 10 μg UM-exosome isolated from […] in 100 μL PBS for 7 days. Subsequently, GFP-Luc-Omm1.3 cells were retro-orbitally injected in the mice as described in Surriga et al. (Mol. Cancer Ther., 2013, 12:2817-26). Ibudilast was dissolved to a concentration of 1 mg/ml in physiological saline containing 10% v/v of polyoxyethylene hydrogenated castor oil 60 (HCO60). A week later, the mice were treated daily with vehicle or 7.5 mg/kg ibudilast i.p. and monitored for the development of metastasis. […] The mice were monitored weekly for luminescence with luciferin (Gold Biotechnology). After 7 weeks the livers and lungs were collected and analyzed for luminescence. Experiments were carried out under an Institutional Animal Care and Use Committee—approved (IACUC) protocol, and Institutional guidelines for the proper and humane use of animals were followed. Statistical significance was determined by 2-sample Student t-test.
# MP41 cells = test: Wound healing (scratch) assay, MP41; assay type: cell-based; conditions: exposed to HCM+UM-exo; data not shown
# Experimental: Wound healing assay. Omm1.3 and MP41 cells were scratched with a sterile 200 μL pipette tip. Cells were washed in PBS and replaced with fresh RPMI 1640 complete media, or hepatocyte conditioned media (HCM) pretreated with UM-exo. Images of the wounded area were recorded using an inverted phase-contrast microscope at the indicated time points.
structure (smiles),measurement,setting,value
"CC(C)C(=O)c1c(C(C)C)nn2ccccc12 [ibudilast, 2-methyl-1-(2-(1-methylethyl)pyrazolo(1,5-a)pyridin-3-yl)1-propanone]",CNS penetration,[1],good. CNS penetration
same,plasma level of MIF,MIF,lowers plasma level of MIF
same,wound healing ability of UM cell line Omm1.3,Omm1.3 cells [2],suppressed the wound healing ability
same,UM cell migration toward UM-exosome-stimulated hepatocyte conditioned media (HCM),Omm1.3 cells [3],dramatically inhibited cell migration
same,metastatic spread (bioluminescence signal intensity in the abdominal region),GFP-Luc-Omm1.3 cells,showed inhibition of metastatic spread
same,presence of cancer cell clusters in liver sections (H&E staining),GFP-Luc-Omm1.3 cells,not in the livers
same,bioluminescence in lungs and livers at necropsy,GFP-Luc-Omm1.3 cells; after 7 weeks,no bioluminescence signal in organs
same,wound healing ability of UM cell line MP41,MP41 cells,suppressed the wound healing ability
